# Laboratory results from US20250195549A1, “NEW USE” (Kancera AB, priority 2023, published 2025).
# Legend:
# [1] = tested on: ST-elevation myocardial infarction (STEMI) patients undergoing percutaneous coronary intervention; experiment: FRACTAL phase IIa clinical study: left ventricular thrombus and intramyocardial haemorrhage by CMR and/or echocardiogram on day 3; assay type: in vivo, human; settings: treatment group vs placebo, day 3 of the treatment
# Description: (§1) The FRACTAL (FRACTalkine inhibition in Acute myocardial infarction) study was designed as a phase Iia, randomised, two-arm parallel-group, placebo-controlled, double-blind, multi-centre trial. The trial was primarily intended to assess the safety tolerability of intravenous and oral administration of (2R)-2-[(2-amino-5-{[(1S)-1-phenylethyl]thio}[1,3]thiazolo[4,5-d]pyrimidin-7-yl)amino]-4-methylpentan-1-ol (KAND567) (hydrochloride salt) (′investigational medicinal product (IMP)′; structure below)
# in ST-elevation myocardial infarction (STEMI) patients undergoing percutaneous coronary intervention. For this, a cohort of 71 STEMI patients were admitted into two large tertiary centres in the United Kingdom. Secondary endpoints included investigating the anti-inflammatory and cardioprotective effects of the treatment. […]
# (§2) The primary outcome of the study was safety, but a number of key secondary outcomes being assessed in parallel. Blood samples at nine different time points were used to assess any changes in the immune compartment as well as in inflammatory markers, and the cardioprotective effects of KAND567, as measured by gadolinium-contrast Cardiac Magnetic Resonance (CMR) (Cardiac MRI), were assessed as an additional secondary end point. […]
# [2] = tested on: ST-elevation myocardial infarction (STEMI) patients undergoing percutaneous coronary intervention; experiment: FRACTAL clinical study: infarct size by late gadolinium-enhanced (LGE) MRI at day 90; assay type: in vivo, human; settings: for Infarct size, GAD5-SD(%): LGE MRI at day 90, average, N in brackets
# Protocol: Every patient received a baseline CMR scan on day 3 post myocardial infarction, followed by a subsequent scan after 3 months. Image analysis was performed by a
# Additionally, the size of the myocardial infarction was assessed using late gadolinium-enhanced (LGE) magnetic resonance imaging (MRI) at day 90 to compare infarct size in patients administered the placebo or the IMP, using a thresholding of 5 standard deviations above the mean signal intensity from normal myocardium.
# The average infarct size for patients with and without intramyocardial haemorrhage in the placebo and treatment groups is shown in the table below.
# [3] = tested on: ST-elevation myocardial infarction (STEMI) patients undergoing percutaneous coronary intervention; experiment: FRACTAL clinical study: safety, tolerability and bleeding; assay type: in vivo, human
# Description: as §1
# Following angiography and final confirmation of eligibility, patients were randomised to receive the intravenous (IV) bolus of either investigational medicinal product (IMP) or placebo. To avoid delivery of the IMP after reperfusion of the occluded vessel, percutaneous coronary intervention (PCI) was only commenced following the intravenous bolus of IMP/placebo. Patients then completed the remainder of their IMP infusion over 6 h. […]
# as §2
# [4] = FRACTAL clinical study: steady state concentration during IV infusion; assay type: in vivo, human; settings: IV infusion over 6 hours, total dose 134 mg; in the blood
# Protocol: The IMP and placebo (IMP 7.5 mg/mL solution (comprising 7.5 mg/mL IMP, Kleptose HP, sodium chloride and disodium phosphate in water for injection) added to 250 mL sodium chloride 0.9%, placebo solution as IMP solution but without active ingredient) were administered intravenously over a 6 hour period, at the rate summarised in the table below.
# • Infusion of the initial bolus dose (approximately 10 mg of the active ingredient) was commenced at least 2 minutes before initiation of PCI. • Reperfusion of the occluded vessel was then initiated by advancing a coronary wire past the occluded or partially occluded site, followed by either balloon angioplasty, thrombectomy or stenting, according to routine clinical care. • IV infusion was then continued over 6 hours with an estimated steady state concentration of 1.5 µM (the rate of infusion was adjusted 3 hours after the start of the bolus dose, to achieve a steady concentration in the blood). The same IV solution was used throughout to give a total dose of 134 mg of the active ingredient over the 6-hour infusion time; placebo solution as IMP solution but without active ingredient). • If required, a bridging peroral dose of 0 to 4 capsules (50 mg capsules of IMP (white, size 1, hard capsules) or matching placebo) was administered depending on timing of presenting at the hospital. […]
# [5] = tested on: rat myocardial infarction model; settings: rat model without antiplatelet or anticoagulant co-treatment; cited from earlier work
structure (smiles),measurement,setting,value
"CC(C)C[C@H](CO)Nc1nc(S[C@@H](C)c2ccccc2)nc2nc(N)sc12 [KAND567, (2R)-2-[(2-amino-5-{[(1S)-1-phenylethyl]thio}[1,3]thiazolo[4,5-d]pyrimidin-7-yl)amino]-4-methylpentan-1-ol]",intramyocardial haemorrhage (in words),[1],significant reduction
same,left ventricular thrombus (in words),[1],significant reduction
same,infarct size compared to the placebo group (in words),"[2]; day 90, beyond the benefit of avoiding intramyocardial hemorrhage",further reduction
same,"Infarct size, GAD5-SD(%)","[2]; patients with intramyocardial hemorrhage, T-test vs placebo p = 0.81",30.8 (11) %
same,"Infarct size, GAD5-SD(%)","[2]; patients without intramyocardial hemorrhage, T-test vs placebo p = 0.15",17.8 (16) %
same,safety and tolerability,[3]; intravenous and oral administration in STEMI patients,safe and well-tolerated
same,incidence of bleeding,[3]; treatment group vs placebo,no increased incidence of bleeding
same,estimated steady state concentration,[4],1.5 UM
same,infarct size,[5],reduce
same,inflammation,[5],reduce
same,intramyocardial haemorrhage,[5],reduce
